# The source made the active and inactive calls. The rule behind the calls is not given here.
# Tests used:
# Plasmodium falciparum [1] = assay: Antimalarial activity against chloroquine-sensitive Plasmodium falciparum 3D7 infected in human erythrocytes assessed as reduction in parasite growth incubated for 72 hrs by SYBR green dye fluorimetric assay; format: functional, organism-based; settings: 3D7, Erythrocyte
# [2] = Cytotoxicity against human HepG2 cells; format: toxicity, cell-based
# [3] = Selectivity index, ratio of CC50 for cytotoxicity against human HepG2 cells to IC50 for antimalarial activity against chloroquine-sensitive Plasmodium falciparum 3D7 infected in human erythrocytes assessed as reduction in parasite growth incubated for 72 hrs by SYBR green dye fluorimetric assay; format: toxicity, cell-based; settings: read-out: Ratio CC50/IC50
# Plasmodium berghei = assay: Antimalarial activity against GFP-luciferase expressing liver stage Plasmodium berghei sporozoites infected in human HepG2 cells assessed as inhibition of parasitic growth by luminescence based analysis; format: functional, organism-based
# Plasmodium falciparum [4] = assay: Antimalarial activity against […] infected in human erythrocytes assessed as reduction in parasite growth incubated for 72 hrs by SYBR green dye fluorimetric assay; format: functional, organism-based; settings: K1, Erythrocyte
# [5] = Resistance index, ratio of IC50 for antimalarial activity against […] infected in human erythrocytes to IC50 for antimalarial activity against chloroquine-sensitive Plasmodium falciparum 3D7 infected in erythrocytes; format: functional
# Plasmodium falciparum [6] = assay: Induction of morphological changes in asexual blood stage Plasmodium falciparum assessed as appearance of condensed cytoplasm at 1 uM incubated for 24 hrs by Geimsa-staining based light microscopic analysis; format: functional, organism-based
# Plasmodium falciparum [7] = assay: Induction of morphological changes in asexual blood stage Plasmodium falciparum assessed as appearance of compact structure at 1 uM incubated for 24 hrs by Geimsa-staining based light microscopic analysis; format: functional, organism-based
# Plasmodium falciparum [8] = assay: Antimalarial activity against […] infected in human erythrocytes assessed as inhibition of parasitic growth at 5 uM incubated for 72 hrs by SYBR green dye fluorimetric assay relative to control; format: functional, K1, Erythrocyte; parameters: scale not given: the % may be the effect or the level left
# Plasmodium falciparum [9] = assay: Induction of morphological changes in asexual blood stage Plasmodium falciparum assessed as lack of prominent periphery in trophozoites at 1 uM incubated for 24 hrs by Geimsa-staining based light microscopic analysis; format: functional, organism-based
# Plasmodium falciparum [10] = assay: Induction of morphological changes in asexual blood stage Plasmodium falciparum assessed as appearance of schizonts at 1 uM incubated for 48 to 72 hrs by Geimsa-staining based light microscopic analysis; format: functional, organism-based; settings: time 48-72 hrs
# Plasmodium falciparum [11] = assay: Induction of morphological changes in asexual blood stage Plasmodium falciparum assessed as appearance of healthy rings at 1 uM incubated for 48 to 72 hrs by Geimsa-staining based light microscopic analysis; format: functional, organism-based; settings: time 48-72 hrs
# Plasmodium falciparum [12] = assay: Induction of morphological changes in asexual blood stage Plasmodium falciparum assessed as appearance of fragmentation at 1 uM incubated for 24 hrs by Geimsa-staining based light microscopic analysis; format: functional, organism-based
# Plasmodium falciparum [13] = assay: Antimalarial activity against chloroquine-sensitive Plasmodium falciparum 3D7 infected in erythrocytes assessed as inhibition of parasite growth at 0.16 to 0.31 uM incubated for 72 hrs by SYBR green dye fluorimetric assay; format: functional, organism-based; settings: Erythrocyte, dose 0.16-0.31 µM
# Plasmodium falciparum [14] = assay: Antimalarial activity against […] infected in human erythrocytes assessed as inhibition of parasitic growth at 0.16 to 0.63 uM incubated for 72 hrs by SYBR green dye fluorimetric assay relative to control; format: functional, K1, Erythrocyte; parameters: scale not given: the % may be the effect or the level left; settings: dose 0.16-0.63 µM
Structure (SMILES),IC50 (Plasmodium falciparum [1]),CC50 [2],selectivity ratio at 72 h [3],IC50 (Plasmodium falciparum [4]),Ratio IC50 [5],also measured
O=C(NCc1cn(-c2cc(C(F)(F)F)cc(C(F)(F)F)c2)nn1)c1cc2c([nH]c3ccccc32)c(-c2ccc(Cl)cc2Cl)n1,2500 nM,155 µM,120,,,
O=C(NCc1cn(-c2ccc(F)cc2)nn1)c1cc2c([nH]c3ccccc32)c(-c2ccccc2)n1,1400 nM,207 µM,148,,,
C#CCNC(=O)c1cc2c([nH]c3ccccc32)c(-c2ccc(F)cc2)n1,3460 nM,167 µM,,,,
O=C(NCc1cn(-c2ccc(OC(F)(F)F)cc2)nn1)c1cc2c([nH]c3ccccc32)c(-c2ccc(Cl)cc2Cl)n1,1550 nM,187 µM,121,,,
COc1cc(NC(C)CCCN)c2ncccc2c1 (stereo not given) [PRIMAQUINE],,,,,,IC50 (Plasmodium berghei): 2.5 µM
COc1ccc(-n2cc(CNC(=O)c3cc4c([nH]c5ccccc54)c(-c4ccccc4)n3)nn2)cc1,3050 nM,195 µM,64,,,
COc1ccc(-c2nc(C(=O)NCc3cn(-c4cccc(C(F)(F)F)c4)nn3)cc3c2[nH]c2ccccc23)cc1,450 nM,200 µM,444,650 nM,1.44,
O=C(NCc1cn(-c2ccc(F)cc2)nn1)c1cc2c([nH]c3ccccc32)c(-c2ccc(C(F)(F)F)cc2)n1,210 nM,71.7 µM,341,610 nM,2.9,
O=C(NCc1cn(-c2ccccc2)nn1)c1cc2c([nH]c3ccccc32)c(-c2ccccc2)n1,2920 nM,220 µM,75.3,,,
COc1ccc(-c2nc(C(=O)NCc3cn(-c4ccccc4)nn3)cc3c2[nH]c2ccccc23)cc1,1570 nM,79.5 µM,50.6,,,
O=C(NCc1cn(-c2cccc(C(F)(F)F)c2)nn1)c1cc2c([nH]c3ccccc32)c(-c2ccc(Cl)cc2Cl)n1,1300 nM,195 µM,150,,,
O=C(NCc1cn(-c2ccccc2)nn1)c1cc2c([nH]c3ccccc32)c(-c2ccc(C(F)(F)F)cc2)n1,370 nM,159 µM,430,750 nM,2.03,
O=C(NCc1cn(-c2ccccc2)nn1)c1cc2c([nH]c3ccccc32)c(-c2cccc(Cl)c2)n1,800 nM,217 µM,271,820 nM,1.025,
COc1cc([C@@H]2c3cc4c(cc3[C@H](O)[C@H]3COC(=O)[C@H]23)OCO4)cc(OC)c1OC [PODOFILOX],,8.7 µM,,,,
Cc1ccc(-c2cn(-c3ccc(F)cc3)nn2)cc1,3670 nM,159 µM,,,,
O=C(NCc1cn(-c2cccc(C(F)(F)F)c2)nn1)c1cc2c([nH]c3ccccc32)c(-c2ccccc2)n1,1470 nM,200 µM,136,,,
O=C(NCc1cn(-c2ccc(F)cc2)nn1)c1cc2c([nH]c3ccccc32)c(-c2ccc(Cl)cc2Cl)n1,1840 nM,167 µM,90.5,,,
Cc1ccc(-c2nc(C(=O)NCc3cn(-c4ccc(F)cc4)nn3)cc3c2[nH]c2ccccc23)cc1,1940 nM,177 µM,91.4,,,
COc1ccc(-c2nc(C(=O)NCc3cn(-c4ccc(F)cc4)nn3)cc3c2[nH]c2ccccc23)cc1,1910 nM,163 µM,85.5,,,
COc1ccc(-n2cc(CNC(=O)c3cc4c([nH]c5ccccc54)c(-c4ccc(Cl)cc4Cl)n3)nn2)cc1,920 nM,221 µM,240,570 nM,0.62,Activity (Plasmodium falciparum [6]): Active; Irreversible Structural Deformations Observed; Activity (Plasmodium falciparum [7]): Active; Irreversible Structural Deformations Observed; Activity (Plasmodium falciparum [8]): 95.63%; Activity (Plasmodium falciparum [9]): Active; Irreversible Structural Deformations Observed; Activity (Plasmodium falciparum [10]): inactive; Activity (Plasmodium falciparum [11]): inactive; Activity (Plasmodium falciparum [12]): Active; Irreversible Structural Deformations Observed
CCc1ccc(-n2cc(CNC(=O)c3cc4c([nH]c5ccccc54)c(-c4ccc(C)cc4)n3)nn2)cc1,750 nM,200 µM,266,490 nM,0.65,Activity (Plasmodium falciparum [6]): Active; Irreversible Structural Deformations Observed; Activity (Plasmodium falciparum [7]): Active; Irreversible Structural Deformations Observed; IC50 (Plasmodium berghei): 7.58 µM; Activity (Plasmodium falciparum [8]): 100%; Activity (Plasmodium falciparum [9]): Active; Irreversible Structural Deformations Observed; Activity (Plasmodium falciparum [10]): inactive; Activity (Plasmodium falciparum [11]): inactive; Activity (Plasmodium falciparum [12]): Active; Irreversible Structural Deformations Observed
O=C(NCc1cn(-c2ccccc2)nn1)c1cc2c([nH]c3ccccc32)c(-c2ccc(Cl)cc2Cl)n1,2040 nM,214 µM,105,,,
O=C(NCc1cn(-c2ccc(F)cc2)nn1)c1cc2c([nH]c3ccccc32)c(-c2cccc(Cl)c2)n1,410 nM,227 µM,553,660 nM,1.61,
O=C(NCc1cn(-c2ccc(C(F)(F)F)cc2)nn1)c1cc2c([nH]c3ccccc32)c(-c2ccc(Cl)cc2Cl)n1,980 nM,240 µM,245,760 nM,0.78,Activity (Plasmodium falciparum [6]): Active; Irreversible Structural Deformations Observed; Activity (Plasmodium falciparum [7]): Active; Irreversible Structural Deformations Observed; Activity (Plasmodium falciparum [13]): Active; Activity (Plasmodium falciparum [8]): 95.63%; Activity (Plasmodium falciparum [9]): Active; Irreversible Structural Deformations Observed; Activity (Plasmodium falciparum [14]): 14%; Activity (Plasmodium falciparum [10]): inactive; Activity (Plasmodium falciparum [11]): inactive; Activity (Plasmodium falciparum [12]): Active; Irreversible Structural Deformations Observed
O=C(NCc1cn(-c2ccc(F)cc2F)nn1)c1cc2c([nH]c3ccccc32)c(-c2ccc(Cl)cc2Cl)n1,1700 nM,144 µM,84.5,,,
Cc1ccc(-c2nc(C(=O)NCc3cn(-c4ccccc4)nn3)cc3c2[nH]c2ccccc23)cc1,880 nM,187 µM,213,320 nM,0.36,Activity (Plasmodium falciparum [6]): Active; Irreversible Structural Deformations Observed; Activity (Plasmodium falciparum [7]): Active; Irreversible Structural Deformations Observed; IC50 (Plasmodium berghei): 4.81 µM; Activity (Plasmodium falciparum [8]): 82.3%; Activity (Plasmodium falciparum [9]): Active; Irreversible Structural Deformations Observed; Activity (Plasmodium falciparum [10]): inactive; Activity (Plasmodium falciparum [11]): inactive; Activity (Plasmodium falciparum [12]): Active; Irreversible Structural Deformations Observed
Cc1ccc(-n2cc(CNC(=O)c3cc4c([nH]c5ccccc54)c(-c4ccc(Cl)cc4Cl)n3)nn2)cc1,2500 nM,222 µM,88.8,,,

# From ChEMBL document CHEMBL6177959, “Design, synthesis and evaluation of novel carboline-triazole hybrids as promising antimalarial agents” (Eur J Med Chem, 2025)
